Reference: patent US20210087240A1, “BLOCKING GARP CLEAVAGE AND METHODS OF USE THEREOF” (MUSC FOUNDATION FOR RESEARCH DEVELOPMENT, priority 2017, published 2021)
Where a chain is given by its changes, count along the chain named.

Experiments:
[1] = test system: recombinant form of soluble GARP (sGARP) where the transmembrane domain was replaced by IgG1 Fc fragment
[2] = test system: T1, GARP (Glycoprotein-A Repetitions Predominant Protein), wild type, expressed on PreB cells
T1 sequence: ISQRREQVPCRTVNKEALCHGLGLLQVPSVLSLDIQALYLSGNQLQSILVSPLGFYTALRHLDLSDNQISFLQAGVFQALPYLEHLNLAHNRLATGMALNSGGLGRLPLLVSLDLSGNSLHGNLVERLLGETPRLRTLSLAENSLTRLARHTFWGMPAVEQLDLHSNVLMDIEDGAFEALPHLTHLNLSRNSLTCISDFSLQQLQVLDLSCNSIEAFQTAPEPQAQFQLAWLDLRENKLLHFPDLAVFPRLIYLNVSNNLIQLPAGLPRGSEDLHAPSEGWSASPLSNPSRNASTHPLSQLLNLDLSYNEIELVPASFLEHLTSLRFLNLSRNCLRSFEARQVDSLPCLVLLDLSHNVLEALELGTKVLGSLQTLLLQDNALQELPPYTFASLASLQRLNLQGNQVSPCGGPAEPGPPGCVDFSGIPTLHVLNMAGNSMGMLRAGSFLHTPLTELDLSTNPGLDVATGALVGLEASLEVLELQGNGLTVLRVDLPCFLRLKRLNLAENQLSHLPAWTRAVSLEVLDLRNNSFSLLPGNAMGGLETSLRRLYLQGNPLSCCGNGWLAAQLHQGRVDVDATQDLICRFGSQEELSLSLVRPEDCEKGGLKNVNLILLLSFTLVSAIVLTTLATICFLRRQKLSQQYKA

[3] = test system: T2, GARP double mutant (DM) PR 267-268AA PR 286-287AA, expressed on PreB cells
T2 sequence: T1 sequence with P249A, R250A, P268A, R269A

[4] = test system: thrombin activated platelets; test: Flow cytometry of surface GARP/LAP on platelets stimulated with thrombin; type: cell-based, murine
Procedure: (§1) FIGS. 7A-7G: Direct thrombin inhibitor Dabigatran Etexilate reduces platelet GARP expression and protects against melanoma and colon cancer. (A) Flow cytometry analysis of surface GARP/LAP complex on murine WT platelets stimulated with and without thrombin and Dabigratan Etexilate. (B) Tumor growth curves of mice subcutaneously injected with B16-F1 melanoma cells and daily treated with 3 mg/mouse of Dabigratan Etexilate. (C) Tumor growth curves of mice subcutaneously injected with MC38 colon cancer cells and daily treated with 3 mg/mouse of Dabigratan Etexilate. (D) Serum was obtained from tumor bearing MC38 colon cancer and active (D) and total TGF-β (E) was measured by ELISA. (F) Serum was obtained from tumor bearing MC38 colon cancer and soluble GARP was measured by ELISA. (G) Percentage of regulatory T cells CD25+ FOXP3+ in the CD4+ tumor-infiltrating CD4+ lymphocytes (TIL) from the indicated mice.
(§2) Now, to establish the clinical relevance of the Thrombin-GARP/TGF-β axis, the direct thrombin inhibitor, Dabigatran Etexilate was employed. […] The anti-tumor efficacy of Dabigatran Etexilate was tested in 2 different tumor models. […] As a further proof of the mechanism employed by dabigatran to exert its antitumor activity, serum active and total TGF-β, and serum GARP concentrations were assessed by ELISA.

TGFβ = TGFβ ELISA on serum of WT B6 mice treated for one week; type: in vivo; details: one week daily gavage of 3 mg/mouse
Procedure: (A) Tumor growth curves of mice subcutaneously injected with MC38 colon cancer cells and daily treated with 3 mg/mouse of Dabigatran etexilate. (B) Tumor growth curves of mice subcutaneously injected with B16-F1 melanoma cells and daily treated with 3 mg/mouse of Dabigatran etexilate. (C) TGFβ ELISA on serum of WT B6 mice treated for one week with daily gavage of 3 mg/mouse of Dabigatran etexilate. Repeated measurement 2-way ANOVA was performed in A and B.

B16-F1 melanoma cells = test: B16-F1 melanoma tumor growth in mice; type: in vivo; details: subcutaneous B16-F1, daily 3 mg/mouse, no adoptive T cell transfer
Procedure: as §1
(§3) (A) Tumor growth curves of mice subcutaneously injected with MC38 colon cancer cells and daily treated with 3 mg/mouse of Dabigatran etexilate. […]
(§4) Now, to establish the clinical relevance of the Thrombin-GARP/TGF-β axis, the direct thrombin inhibitor, Dabigatran Etexilate was employed. […] As a further proof of the mechanism employed by dabigatran to exert its antitumor activity, serum active and total TGF-β, and serum GARP concentrations were assessed by ELISA.

MC38 colon cancer cells [5] = test: MC38 colon cancer tumor growth in mice; type: in vivo; details: subcutaneous MC38, daily 3 mg/mouse
Procedure: as §1, §3, §4

TGF-β = test: Serum active and total TGF-β ELISA in MC38 tumor bearing mice; type: in vivo
Procedure: as §1, §2

soluble GARP = test: Serum soluble GARP ELISA in MC38 tumor bearing mice; type: in vivo
Procedure: as §1, §2

[6] = test system: regulatory T cells CD25+ FOXP3+; test: Regulatory T cells among tumor-infiltrating CD4+ lymphocytes; type: in vivo, mice; details: CD25+ FOXP3+ in CD4+ TIL
Procedure: as §1, §2

MC38 colon cancer cells [7] = test: Dabigatran and PD1 blocking antibody combination therapy in MC38 tumor model; type: in vivo, mice; details: dabigatran 3 mg/mouse daily oral gavage, 200 μg anti-PD1 every 3 days from day 8
Excerpt: (A) Experimental design for Dabigatran and PD1 blocking antibody combination therapy. (B) Tumor growth curves of mice subcutaneously injected with MC38 colon cancer cells and treated with Dabigatran alone, with PD1 blocking antibody, with the combination of Dabigatran and PD1 blocking antibody or left untreated. (C) Survival curve in MC38-bearing mice treated with Dabigatran alone, with PD1 blocking antibody, with the combination of Dabigatran and PD1 blocking antibody or left untreated. Repeated measurement 2 way Anova was performed in B. Log-rank (Mantel-Cox) was performed in C. (D) Serum was collected from the mice under the dual treatment and analyzed for TGFβ concentration by TGFβ ELISA. (E) Platelets count of the mice under dual treatment. Repeated measurement 2-way ANOVA was performed in B. Log-rank (Mantel-Cox) was performed in C. Two-tailed, independent Student's t-test was used in panel D and E.
Next, Dabigatran was used in combination with PD1 blockade to block thrombin and consequentially platelet activation to achieve both a reduction of systemic and circulating TGF-β, and the abrogation of platelet-mediated tumor support. Platelets, indeed, secrete many other factors beyond TGF-β that facilitate tumor immune evasion. Animals harboring palpable tumors were daily treated with 3 mg/mouse dabigatran by oral gavage. […]

thrombin = test: Competition assay: GARP expressing PreB cells digested with thrombin, western blot; type: cell-based; details: 4 μg thrombin
Excerpt: FIGS. 12A-12E: Thrombin cleaves GARP at the amino acid position 267 and 286 between proline and arginine. (A) Surface Flow cytometry analysis for GARP of WT PreB cells and GARP expression in PreB cells expressing WT GARP, GARP with single point mutation 267 aa, GARP with single point mutation 286 aa, GARP with double point mutation 267/286 aa (DM), and relative control vector. (B) Western Blot analysis of cells lysates and conditioned media of PreB cells expressing WT GARP, GARP with single point mutation 267 aa, GARP with single point mutation 286 aa, or GARP with double point mutation 267/286 aa using antibody against GARP. (C) PreB cells expressing WT or DM GARP were digested with increasing concentration of thrombin (0, 1, 2, and 4 μg in 25 μl), followed by western blot analysis. (D) Recombinant fragment of GARP containing the two Proline Arginine thrombin binding sites (T250; SEQ ID NO:1). (E) Western blotting analysis of GARP expressing PreB cells digested with 4 μg of thrombin in presence and absence of 4 μg of T250.
Thus, 3 types of mutants: PR 267-268AA (GARP 267), PR 286-287AA (GARP 286), and double mutant (DM) PR 267-268AA PR 286-287AA (GARP 267-286, -DM) were generated. […] Next, it tested whether GARP-DM was resistant to the cleavage of exogenous thrombin. To this end, PreB GARP-WT and PreB GARP-DM were treated with increasing concentrations of thrombin.

Molecule: thrombin
- western blot of soluble GARP digested with increasing concentrations of thrombin [1]: digestion of soluble GARP with thrombin gave rise to 3 fragments: GARP full length (72 KD), and the 2 smaller fragments of 44 and 29 KD
- western blot after digestion of PreB GARP-WT with increasing concentrations of thrombin [2]: Both 44 and 29 KD fragments increased in a dose dependent fashion in GARP-WT
- western blot after digestion of PreB GARP-DM with increasing concentrations of thrombin [3]: no cleaved products were observed in GARP-DM

Molecule: CCCCCCOC(=O)NC(=N)c1ccc(NCc2nc3cc(C(=O)N(CCC(=O)OCC)c4ccccn4)ccc3n2C)cc1 [Dabigatran, Dabigatran Etexilate]
- GARP expression on platelets [4]: increase of GARP expression on platelets can be neutralized
- systemic active TGFβ (TGFβ): decreases systemic active TGFβ
- B16-F1 tumor growth (B16-F1 melanoma cells): reduced B16-F1 tumor aggressiveness
- MC38 tumor growth (MC38 colon cancer cells [5]): sufficient to decrease the rate of tumor growth
- MC38 tumor growth (MC38 colon cancer cells [5]; listed as Dabigatran etexilate): has anti-cancer effect in MC38 colorectal cancer
- serum total TGF-β (TGF-β): reduced serum total TGF-β
- serum active TGF-β, mean (TGF-β; difference to untreated not statistically significant): 42.47±23.73
- serum soluble GARP (soluble GARP): impairs the release of serum soluble GARP from platelets
- TGF-β mediated induction of Tregs in the tumor microenvironment [6]: reduces the TGF-β mediated induction of Tregs
- tumor growth (MC38 colon cancer cells [7]): effective in reducing tumor growth

Molecule: T250: Recombinant fragment of GARP containing the two Proline Arginine thrombin binding sites; DLRENKLLHFPDLAVFPRLIYLNVSNNLIQLPAGLPRGSEDLHAPSEGWSA (SEQ ID NO:1) (GARP peptide)
- competition with surface GARP in binding with thrombin (thrombin; 4 μg T250): competed with surface GARP in binding with thrombin
- GARP cleavage (thrombin; in presence of exogenous thrombin, 4 μg T250, western blot): able to reduce GARP cleavage
